{
  "source": "patent US9211310B2",
  "about": "“Use of a Chinese medicine composition in preparing medicaments for treating secondary prevention of myocardial infarction” (TASLY PHARMACEUTICAL GROUP CO., LTD, priority 2010, dated 2015)",
  "tested_on": "patients after acute myocardial infarction",
  "test": "Life quality, Seattle Angina Questionnaire (SAQ), same clinical trial",
  "format": "in vivo, human",
  "details": "PP",
  "excerpt": "3508 patients who were in accordance with the diagnostic standards of AMI for 28 days to 2 years and differentiated as Qi deficiency and blood stagnation syndrome by TCM were studied. 0.5 g Chinese medicine composition prepared by the method of EXAMPLE 1 (Coded as QSYQ) was administrated half an hour after meal, 3 times per day.\nThere were 19 questions in the Seattle angina questionnaire (SAQ), including 5 parts: physical limitation (PL), anginal stability (AS), anginal frequency (AF), treatment satisfaction (TS) and disease perception (DP). After being given necessary explanation by doctors, the questions were answered independently by patients.\nThey included the overall survival time, angina pectoris score, TCM symptom score and life quality score, where angina pectoris score, TCM symptom score and life quality score were evaluated at randomization, in 1st, 3rd, 6th, 9th, 12th month after treatment and 18th month after follow-up.\nAll evaluation results of SAQ were described during the period of observation, and Wilcoxon rank sum test was used for inter-group comparison.\nThe evaluation results in the SAQ were depicted in different observations, and inter-group comparison was tested by Wilcoxon Rank-sum test.",
  "data": [
    {"smiles": "CC(=O)Oc1ccccc1C(=O)O", "note": "[Control group, aspirine]", "values": [
      {"measurement": "SAQ 6th question, Highly consent: % of patients", "setting": "1 month after treatment", "result": "(17.86%)"},
      {"measurement": "SAQ 6th question, Highly consent: number of patients", "setting": "1 month after treatment", "result": 266},
      {"measurement": "SAQ 6th question, Mostly dissatisfied: % of patients", "setting": "1 month after treatment", "result": "(4.37%)"},
      {"measurement": "SAQ 6th question, Mostly dissatisfied: number of patients", "setting": "1 month after treatment", "result": 65},
      {"measurement": "SAQ 6th question, Mostly satisfied: % of patients", "setting": "1 month after treatment", "result": "(47.88%)"},
      {"measurement": "SAQ 6th question, Mostly satisfied: number of patients", "setting": "1 month after treatment", "result": 713},
      {"measurement": "SAQ 6th question, Partly satisfied: % of patients", "setting": "1 month after treatment", "result": "(29.68%)"},
      {"measurement": "SAQ 6th question, Partly satisfied: number of patients", "setting": "1 month after treatment", "result": 442},
      {"measurement": "SAQ 7th question, Dissatisfied: % of patients", "setting": "1 month after treatment", "result": "(0.13%)"},
      {"measurement": "SAQ 7th question, Dissatisfied: number of patients", "setting": "1 month after treatment", "result": 2},
      {"measurement": "SAQ 7th question, Highly satisfied: % of patients", "setting": "1 month after treatment", "result": "(23.40%)"},
      {"measurement": "SAQ 7th question, Highly satisfied: number of patients", "setting": "1 month after treatment", "result": 348},
      {"measurement": "SAQ 7th question, Mostly dissatisfied: % of patients", "setting": "1 month after treatment", "result": "(3.36%)"},
      {"measurement": "SAQ 7th question, Mostly dissatisfied: number of patients", "setting": "1 month after treatment", "result": 50},
      {"measurement": "SAQ 7th question, Mostly satisfied: % of patients", "setting": "1 month after treatment", "result": "(48.69%)"},
      {"measurement": "SAQ 7th question, Mostly satisfied: number of patients", "setting": "1 month after treatment", "result": 724},
      {"measurement": "SAQ 7th question, Partly satisfied: % of patients", "setting": "1 month after treatment", "result": "(24.41%)"},
      {"measurement": "SAQ 7th question, Partly satisfied: number of patients", "setting": "1 month after treatment", "result": 363},
      {"measurement": "SAQ Question 1-1 Mildly limited, number of patients", "setting": "1 month after treatment", "result": 21},
      {"measurement": "SAQ Question 1-1 Mildly limited, percent of patients", "setting": "1 month after treatment", "result": "(1.41%)"},
      {"measurement": "SAQ Question 1-1 Moderately limited, number of patients", "setting": "1 month after treatment", "result": 9},
      {"measurement": "SAQ Question 1-1 Moderately limited, percent of patients", "setting": "1 month after treatment", "result": "(0.60%)"},
      {"measurement": "SAQ Question 1-1 Not limited, number of patients", "setting": "1 month after treatment", "result": 1375},
      {"measurement": "SAQ Question 1-1 Not limited, percent of patients", "setting": "1 month after treatment", "result": "(92.41%)"},
      {"measurement": "SAQ Question 1-1 Other reasons, number of patients", "setting": "1 month after treatment", "result": 2},
      {"measurement": "SAQ Question 1-1 Other reasons, percent of patients", "setting": "1 month after treatment", "result": "(0.13%)"},
      {"measurement": "SAQ Question 1-1 Severely limited, number of patients", "setting": "1 month after treatment", "result": 1},
      {"measurement": "SAQ Question 1-1 Severely limited, percent of patients", "setting": "1 month after treatment", "result": "(0.07%)"},
      {"measurement": "SAQ Question 1-1 Slightly limited, number of patients", "setting": "1 month after treatment", "result": 80},
      {"measurement": "SAQ Question 1-1 Slightly limited, percent of patients", "setting": "1 month after treatment", "result": "(5.38%)"},
      {"measurement": "SAQ Question 1-2 Mildly limited, number of patients", "setting": "1 month after treatment", "result": 30},
      {"measurement": "SAQ Question 1-2 Mildly limited, percent of patients", "setting": "1 month after treatment", "result": "(2.02%)"},
      {"measurement": "SAQ Question 1-2 Moderately limited, number of patients", "setting": "1 month after treatment", "result": 10},
      {"measurement": "SAQ Question 1-2 Moderately limited, percent of patients", "setting": "1 month after treatment", "result": "(0.67%)"},
      {"measurement": "SAQ Question 1-2 Not limited, number of patients", "setting": "1 month after treatment", "result": 1345},
      {"measurement": "SAQ Question 1-2 Not limited, percent of patients", "setting": "1 month after treatment", "result": "(90.39%)"},
      {"measurement": "SAQ Question 1-2 Other reasons, number of patients", "setting": "1 month after treatment", "result": 4},
      {"measurement": "SAQ Question 1-2 Other reasons, percent of patients", "setting": "1 month after treatment", "result": "(0.27%)"},
      {"measurement": "SAQ Question 1-2 Severely limited, number of patients", "setting": "1 month after treatment", "result": 0},
      {"measurement": "SAQ Question 1-2 Severely limited, percent of patients", "setting": "1 month after treatment", "result": "(0.00%)"},
      {"measurement": "SAQ Question 1-2 Slightly limited, number of patients", "setting": "1 month after treatment", "result": 99},
      {"measurement": "SAQ Question 1-2 Slightly limited, percent of patients", "setting": "1 month after treatment", "result": "(6.65%)"},
      {"measurement": "SAQ Question 1-6: Mildly limited, patients (%)", "setting": "1 month after treatment", "result": "(18.24%)"},
      {"measurement": "SAQ Question 1-6: Moderately limited, patients (%)", "setting": "1 month after treatment", "result": "(15.53%)"},
      {"measurement": "SAQ Question 1-6: Not limited, patients (%)", "setting": "1 month after treatment", "result": "(29.08%)"},
      {"measurement": "SAQ Question 1-6: Other reasons, patients (%)", "setting": "1 month after treatment", "result": "(0.88%)"},
      {"measurement": "SAQ Question 1-6: Severely limited, patients (%)", "setting": "1 month after treatment", "result": "(4.75%)"},
      {"measurement": "SAQ Question 1-6: Slightly limited, patients (%)", "setting": "1 month after treatment", "result": "(31.53%)"},
      {"measurement": "SAQ Question 1-7: Mildly limited, patients (%)", "setting": "1 month after treatment", "result": "(23.85%)"},
      {"measurement": "SAQ Question 1-7: Moderately limited, patients (%)", "setting": "1 month after treatment", "result": "(17.55%)"},
      {"measurement": "SAQ Question 1-7: Not limited, patients (%)", "setting": "1 month after treatment", "result": "(12.34%)"},
      {"measurement": "SAQ Question 1-7: Other reasons, patients (%)", "setting": "1 month after treatment", "result": "(3.08%)"},
      {"measurement": "SAQ Question 1-7: Severely limited, patients (%)", "setting": "1 month after treatment", "result": "(17.75%)"},
      {"measurement": "SAQ Question 1-7: Slightly limited, patients (%)", "setting": "1 month after treatment", "result": "(25.43%)"},
      {"measurement": "SAQ Question 1-8: Mildly limited, patients (%)", "setting": "1 month after treatment", "result": "(24.83%)"},
      {"measurement": "SAQ Question 1-8: Moderately limited, patients (%)", "setting": "1 month after treatment", "result": "(20.79%)"},
      {"measurement": "SAQ Question 1-8: Not limited, patients (%)", "setting": "1 month after treatment", "result": "(8.28%)"},
      {"measurement": "SAQ Question 1-8: Other reasons, patients (%)", "setting": "1 month after treatment", "result": "(2.87%)"},
      {"measurement": "SAQ Question 1-8: Severely limited, patients (%)", "setting": "1 month after treatment", "result": "(22.37%)"},
      {"measurement": "SAQ Question 1-8: Slightly limited, patients (%)", "setting": "1 month after treatment", "result": "(20.86%)"},
      {"measurement": "8th question: Dissatisfied, patients (%)", "setting": "3 months after treatment", "result": "(0.07%)"},
      {"measurement": "8th question: Highly satisfied, patients (%)", "setting": "3 months after treatment", "result": "(19.43%)"},
      {"measurement": "8th question: Mostly dissatisfied, patients (%)", "setting": "3 months after treatment", "result": "(2.85%)"},
      {"measurement": "8th question: Mostly satisfied, patients (%)", "setting": "3 months after treatment", "result": "(52.31%)"},
      {"measurement": "8th question: Partly satisfied, patients (%)", "setting": "3 months after treatment", "result": "(25.34%)"},
      {"measurement": "9th question: Few, patients (%)", "setting": "3 months after treatment", "result": "(31.56%)"},
      {"measurement": "9th question: Mild, patients (%)", "setting": "3 months after treatment", "result": "(32.99%)"},
      {"measurement": "9th question: Moderate, patients (%)", "setting": "3 months after treatment", "result": "(15.51%)"},
      {"measurement": "9th question: Severe, patients (%)", "setting": "3 months after treatment", "result": "(0.95%)"},
      {"measurement": "9th question: Uneffective, patients (%)", "setting": "3 months after treatment", "result": "(18.98%)"},
      {"measurement": "10th question: Dissatisfied, patients (%)", "setting": "3 months after treatment", "result": "(20.88%)"},
      {"measurement": "10th question: Highly satisfied, patients (%)", "setting": "3 months after treatment", "result": "(4.90%)"},
      {"measurement": "10th question: Mostly dissatisfied, patients (%)", "setting": "3 months after treatment", "result": "(22.38%)"},
      {"measurement": "10th question: Mostly satisfied, patients (%)", "setting": "3 months after treatment", "result": "(23.47%)"},
      {"measurement": "10th question: Partly satisfied, patients (%)", "setting": "3 months after treatment", "result": "(28.37%)"},
      {"measurement": "11th question: Continuously worried, patients (%)", "setting": "3 months after treatment", "result": "(4.62%)"},
      {"measurement": "11th question: No worried, patients (%)", "setting": "3 months after treatment", "result": "(4.76%)"},
      {"measurement": "11th question: Occasionally worried, patients (%)", "setting": "3 months after treatment", "result": "(41.47%)"}
    ]}
  ]
}
